This is an account of results in PubChem BioAssay (NCI).

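Briefly, cells in 96-well plates were exposed to five compound concentrations for 48 h, and endpoints were estimated by linear interpolation. TGI marks complete inhibition of growth.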

Holding throughout (assay): inhibition of tumour cell growth, NCI panel, 48 h
Assay [1] relates to BT-549 breast.
Assay [2] deals with T-47D breast.
The subject of assay [3] is SF-268 CNS.
For assay [4], the system named is NCI-H460 lung.
Assay [5] relates to HCT-116 colon.
The test system of assay [6] is UACC-257 melanoma.
The subject of assay [7] is HL-60(TB) leukemia.
Assay [8] deals with NCI-H226 lung.

Turning to `O=C(N/N=C\c1ccccc1)Nc1cccc2ccccc12`, the TGI in assay [1] was 98.3 µM; in assay [2], 48.2 µM; in assay [3] it was more than 100 µM; in assay [4], more than 100 µM; in assay [5], more than 100 µM; in assay [6], more than 100 µM. In addition, the TGI in assay [7] was more than 100 µM; in assay [8], 83.6 µM.
With `COC(=O)c1ccccc1C1CN=NC12Cc1cccc(C)c1C2=O` (configuration not stated), the TGI is more than 100 µM in assay [1]; 56.4 µM in assay [2]; more than 100 µM in assay [3]; more than 100 µM in assay [4]; more than 100 µM in assay [5]; more than 100 µM in assay [6]. Besides, the TGI in assay [7] was 72.1 µM; in assay [8], more than 100 µM.
On to `Nc1ccc(Oc2ccc(C34CC5CC6C3CC3CC4C(C5)C6(c4ccc(Oc5ccc(N)c(O)c5)cc4)C3)cc2)cc1O`, for which the TGI in assay [1] is 20.9 µM; in assay [2] it was more than 63.7 µM; in assay [3] it was 29.2 µM; in assay [4], more than 36.1 µM; in assay [5] it was 11.1 µM; in assay [6] it was 34.7 µM. Besides, the figures for the TGI in assay [7] and in assay [8] were 3.27 µM and 14.3 µM, respectively.
For `CC12CCC(C(Nc3ccccn3)C1=O)C2(C)C` (configuration not stated), the TGI in assay [1], in assay [2], in assay [3], in assay [4], in assay [5] and in assay [6] was more than 100 µM in each case. Besides, the TGI in assay [7] and in assay [8] was more than 100 µM in each case.
As to `Oc1cccc(-c2cn3cc(C(F)(F)F)ccc3n2)c1`, the TGI in assay [1] was more than 100 µM; in assay [2] it was 21.2 µM; in assay [3] it was more than 100 µM; in assay [4], more than 100 µM; in assay [5], more than 100 µM; in assay [6], 65.3 µM. Besides, the TGI in assay [7] and in assay [8] was more than 100 µM each time.
Regarding `COc1cc2c(cc1OC)-c1cc3cc(OC)c(OC)cc3c(=O)n1CC2`, the TGI in assay [1] is more than 100 µM; in assay [2] it was 8.34 µM; in assay [3], more than 100 µM; in assay [4], more than 100 µM; in assay [5], more than 53.4 µM; in assay [6] it was more than 78.4 µM. Further, the TGI in assay [7] is more than 100 µM; in assay [8], more than 85.9 µM.
On to `CC(C)(C)[C@H]1CCC2(OCCO2)[C@](O)(CCCO)C1`, for which the TGI in assay [1], in assay [2], in assay [3], in assay [4], in assay [5] and in assay [6] was more than 100 µM each time. Also, the TGI in assay [7] and in assay [8] was more than 100 µM each time.
As for `O=C1C(NCCN2CCOCC2)=C(Cl)C(=O)c2ncccc21`, the TGI in assay [1] stood at 2.57 µM; in assay [2], 3.14 µM; in assay [3], 3.37 µM; in assay [4], 1.71 µM; in assay [5], 1.14 µM; in assay [7], 0.168 µM. For the same molecule, the TGI in assay [8] amounted to 3.64 µM.
Consider `Cc1ccc(C(=O)Nc2ccc(S(=O)(=O)O)c3cc(S(=O)(=O)O)cc(S(=O)(=O)O)c23)cc1NC(=O)c1cccc(NC(=O)Nc2cccc(C(=O)Nc3cc(C(=O)Nc4ccc(S(=O)(=O)O)c5cc(S(=O)(=O)O)cc(S(=O)(=O)O)c45)ccc3C)c2)c1` (tested in a mixture with another compound), for which the TGI in assay [1], in assay [2], in assay [3], in assay [4], in assay [5] and in assay [6] was more than 50 µM each time. In addition, the TGI in assay [7] and in assay [8] was more than 50 µM in each case.
For the molecule `CCN1CCC(O)(c2ccc(Oc3ccc(C)cc3)cc2)C(C(=O)c2ccc(Oc3ccc(C)cc3)cc2)C1` (configuration not stated), the TGI was 22.4 µM in assay [1]; 33.7 µM in assay [2]; 32.9 µM in assay [3]; 13.8 µM in assay [4]; 19 µM in assay [5]; 26.7 µM in assay [6]. The TGI in assay [7] turned out to be 3.7 µM; in assay [8], 27.9 µM.
Turning to `C#CCn1c(=O)c(Cl)cn(/C(=C/C(=O)OCC)C(=O)OCC)c1=O`, the TGI in assay [1] was 35.7 µM; in assay [2] it was 5.27 µM; in assay [3] it was 51.1 µM; in assay [4], more than 100 µM; in assay [5], 14.4 µM; in assay [6] it was 33.3 µM. Also, the results for the TGI in assay [7] and in assay [8] were 8.21 µM and more than 59.5 µM, respectively.
Consider `COc1ccc2cc(C(=O)NCCCNC(=O)c3ccc4cc(OC)ccc4c3)ccc2c1`, for which the TGI in assay [1], in assay [2], in assay [3], in assay [4], in assay [5] and in assay [6] was more than 100 µM each time. Moreover, the TGI in assay [7] and in assay [8] was more than 100 µM throughout.
In the case of `COC(=O)[C@H](Cc1ccccc1)NP(=O)(O)OCC1C=CC(n2cc(C)c(=O)[nH]c2=O)O1` (some centres not stated), the TGI in assay [1], in assay [2], in assay [3], in assay [4], in assay [5] and in assay [6] was more than 100 µM each time. For the same molecule, the TGI in assay [7] and in assay [8] was more than 100 µM in each case.
As for `CC1(CC2=C(C(=O)NCCO[Si](C)(C)C(C)(C)C)C3(OCCO3)C2=O)OCCO1`, the TGI in assay [1], in assay [2], in assay [3], in assay [4], in assay [5] and in assay [6] was more than 100 µM in each case. The TGI in assay [7] and in assay [8] was more than 100 µM throughout.
`O=c1cc(N=Nc2ccc(Cl)cc2)[nH]c(=O)[nH]1`: the TGI in assay [1] turned out to be 8.38 µM; in assay [2], 11.9 µM; in assay [3], 12.3 µM; in assay [4], 12.2 µM; in assay [5] it was 3.87 µM; in assay [6] it was 10.6 µM. For the same molecule, the TGI in assay [7] stood at 3.89 µM; in assay [8], 20.4 µM.
With `C=CCCCCCCCCCOC1C=CC(OC(C)=O)C(COC(C)=O)O1` (configuration not stated), the TGI is more than 100 µM in assay [1]; more than 100 µM in assay [2]; more than 100 µM in assay [3]; more than 100 µM in assay [4]; more than 100 µM in assay [5]; 95.8 µM in assay [6]. Also, the TGI in assay [7] and in assay [8] was more than 100 µM throughout.
As for `Cc1ccc(S(=O)(=O)NC(=O)NC(Cc2ccc(O)c(O)c2)C(=O)O)cc1` (configuration not stated), the TGI in assay [1] is more than 100 µM; in assay [2], more than 100 µM; in assay [3] it was 2.8 µM; in assay [4] it was more than 100 µM; in assay [5], more than 100 µM; in assay [6], more than 100 µM. In addition, the TGI in assay [7] and in assay [8] was more than 100 µM each time.
On to `Cn1c(=O)c2c(nc(Nc3ccc(Cl)cc3)n3c(=O)n(-c4ccccc4)c(=O)n23)n(C)c1=O`, for which the TGI in assay [1], in assay [2], in assay [3], in assay [4], in assay [5] and in assay [6] was more than 100 µM throughout. In addition, the TGI in assay [7] and in assay [8] was more than 100 µM throughout.
As for `Oc1ccc(O)c(CNc2ccccc2)c1`, the TGI in assay [1] was 24.3 µM; in assay [2] it was 37.9 µM; in assay [3] it was more than 100 µM; in assay [4], 47 µM; in assay [5], 23.9 µM; in assay [6], 39.4 µM. The values for the TGI in assay [7] and in assay [8] were 12.8 µM and 78.4 µM, respectively.
In the case of `CCOC(=O)C(C(=O)OCC)=C1NC2(c3ccccc3Nc3ccc(C)cc32)C(C(=O)OC)S1` (configuration not stated), the TGI in assay [1] was more than 100 µM; in assay [2], 67.2 µM; in assay [3], more than 100 µM; in assay [4] it was more than 100 µM; in assay [5] it was more than 100 µM; in assay [6] it was more than 100 µM. Also, the TGI in assay [7] and in assay [8] was more than 100 µM each time.
Take `Cc1ccc(S(=O)(=O)N2CCNCCN(S(=O)(=O)c3ccc(C)cc3)CCN(S(=O)(=O)c3ccc(C)cc3)CC2)cc1`: the TGI in assay [1], in assay [2], in assay [3], in assay [4], in assay [5] and in assay [6] was more than 100 µM throughout. Besides, the TGI in assay [7] and in assay [8] was more than 100 µM throughout.
With `COc1ccccc1NC(=O)O/N=C(/Cl)C(C)C`, the TGI in assay [1] amounted to 21.6 µM; in assay [2] it was 59.2 µM; in assay [3], 32.5 µM; in assay [4], 37.5 µM; in assay [5] it was 29.3 µM; in assay [6], 26.8 µM. For the same molecule, the TGI in assay [7] came to 3.6 µM; in assay [8], 41.5 µM.
`CC(=O)N1c2ccccc2C(C)C1c1[nH]c2ccccc2c1C` (configuration not stated): the TGI in assay [1] was 58.1 µM; in assay [2], 91.5 µM; in assay [3], 62 µM; in assay [4], more than 100 µM; in assay [5], 41.6 µM; in assay [6], 49.3 µM. Besides, the TGI came out at 44.4 µM in assay [7] and 72.3 µM in assay [8].
Regarding `CCOC(=O)Cn1c(=O)c2cc(-c3ccccc3)cc3c(Cl)nc4c(OC)c(OC)cc1c4c32`, the TGI in assay [1] was 38.3 µM; in assay [2], more than 100 µM; in assay [3] it was 29.2 µM; in assay [4], 39.1 µM; in assay [5], 29.1 µM; in assay [6] it was 38.9 µM. Further, the TGI in assay [7] is 27.4 µM; in assay [8] it was more than 100 µM.
With `c1ccc(-c2cc(-c3cccs3)c(-c3cccs3)o2)cc1`, the TGI in assay [1], in assay [2], in assay [3], in assay [4], in assay [5] and in assay [6] was more than 100 µM throughout. In addition, the TGI in assay [7] and in assay [8] was more than 100 µM throughout.
In the case of `COc1cc2c(cc1OCCCC(=O)Nc1cc(C(=O)NCCCN(C)C)n(C)n1)N=CC1CCCN1C2=O` (configuration not stated), the TGI in assay [1] was 29.7 µM; in assay [2] it was more than 100 µM; in assay [3], more than 50.4 µM; in assay [4] it was more than 100 µM; in assay [5] it was more than 37.7 µM; in assay [6], 19.2 µM. The TGI was 0.24 µM in assay [7] and more than 38.2 µM in assay [8].
Turning to `S=C(Nc1ccccn1)Nc1ccccc1Cl`, the TGI in assay [1] was more than 100 µM; in assay [2] it was more than 100 µM; in assay [3] it was more than 78 µM; in assay [4] it was more than 100 µM; in assay [5] it was more than 100 µM; in assay [6], more than 100 µM. The TGI in assay [7] and in assay [8] was more than 100 µM each time.
`O=C(OCCC12CC3CC(CC(C3)C1)C2)c1ccc(NCc2cc(O)ccc2O)cc1`: the TGI was 0.684 µM in assay [1]; 0.584 µM in assay [2]; 12.7 µM in assay [3]; more than 100 µM in assay [4]; 5.68 µM in assay [5]; 2.38 µM in assay [6]. The TGI in assay [7] is 0.853 µM; in assay [8] it was 8.62 µM.
Take `O=[N+]([O-])c1ccc2c(c1)c(S(=O)(=O)O)cc1nonc12`: the TGI in assay [1], in assay [2], in assay [3], in assay [4], in assay [5] and in assay [6] was more than 100 µM throughout. In addition, the TGI in assay [7] and in assay [8] was more than 100 µM each time.
Regarding `COc1ccc(-c2cc(-c3cc(F)c(Cl)cc3Cl)on2)cc1OC`, the TGI in assay [1], in assay [2], in assay [3], in assay [4], in assay [5] and in assay [6] was more than 100 µM each time. Further, the TGI in assay [7] was determined as 63.4 µM; in assay [8], 80.6 µM.
Regarding `COC(=O)c1cc(C(=CCC[C@H]2CC[C@@]3(C)C(CCC4C3CC[C@@]3(C)C4CC[C@@H]3C(C)CCCC(C)C)C2)c2cc(Cl)c(OC(=O)c3ccccc3)c(C(=O)OC)c2)cc(Cl)c1OC(=O)c1ccccc1` (some centres not stated), the TGI in assay [1], in assay [2], in assay [3], in assay [4], in assay [5] and in assay [6] was more than 10 µM in each case. Further, the TGI in assay [7] and in assay [8] was more than 10 µM each time.
